The values that follow come from US6403535B1, “Substituted thiazol(in) ylideneamino sulfonylamino (thio)carbonyl-triazolinones” (Bayer Aktiengesellschaft, priority 1998, dated 2002).

Each structure is given as a SMILES string.

Data set [1] concerns weeds. The experiment in a line: Pre-emergence test, activity against weeds. Type of data set: in vivo. The method, then: (§1) To produce a suitable preparation of active compound, 1 part by weight of active compound is mixed with the stated amount of solvent, the stated amount of emulsifier is added and the concentrate is diluted with water to the desired concentration.
(§2) Seeds of the test plants are sown in normal soil. After about 24 hours, the soil is sprayed with the preparation of active compound such that the particular amount of active compound desired is applied per unit area. The concentration of the spray liquor is chosen so that the particular amount of active compound desired is applied in 1000 liters of water per hectare.
(§3) After three weeks, the degree of damage to the plants is rated in % damage in comparison to the development of the untreated control.
(§4) 0%=no effect (like untreated control)

The subject of data set [2] is Amaranthus. The experiment in a line: Pre-emergence test/greenhouse. The class given is in vivo. To be noted: 504 h, after three weeks, read-out: degree of damage, Amaranthus. Here is the method: as §1, §2, §3, §4
The subject of data set [3] is Echinochloa. In words: Pre-emergence test/greenhouse. The class given is in vivo. To be noted: 504 h, after three weeks, read-out: degree of damage, Echinochloa. Here is the method:
as §1, §2, §3, §4

The test system of another data set is Matricaria. The experiment in a line: Pre-emergence test/greenhouse. Type of data set: in vivo. The note with it: 504 h, after three weeks, read-out: degree of damage, Matricaria. The method, then:
as §1, §2, §3, §4

In a further data set the test system is Setaria. The experiment in a line: Pre-emergence test/greenhouse. Type of data set: in vivo. To be noted: after three weeks. The method, then:
as §1, §2, §3, §4

In data set [4] the test system is Veronica. The experiment in a line: Pre-emergence test/greenhouse. The note with it: 504 h, after three weeks, read-out: degree of damage, Veronica. The class given is in vivo. The method, then: as §1, §2, §3, §4
Data set [5] deals with weeds. In words: Post-emergence test, activity against weeds. Type of data set: in vivo. The method, then: as §1
(§5) Test plants of a height of 5 -15 cm are sprayed with the preparation of active compound such that the particular amounts of active compound desired are applied per unit area. The concentration of the spray liquor is chosen so that the particular amounts of active compound desired are applied in 1000 l of water/ha.
as §3, §4

Data set [6] deals with Amaranthus. The experiment in a line: Post-emergence test/greenhouse. The class given is in vivo. The note with it: 504 h, 60 g of a.i./ha, after three weeks, read-out: degree of damage, Amaranthus. Here is the method:
as §1, §5, §3, §4

The subject of data set [7] is Echinochloa. The experiment in a line: Post-emergence test/greenhouse. The class given is in vivo. The note with it: 60 g of a.i./ha, after three weeks. Here is the method:
as §1, §5, §3, §4

The test system of a further data set is Polygonum. The experiment in a line: Post-emergence test/greenhouse. The class given is in vivo. The note with it: 60 g of a.i./ha, after three weeks. The method, then:
as §1, §5, §3, §4

The next data set deals with Sorghum. The experiment in a line: Post-emergence test/greenhouse. The class given is in vivo. To be noted: 60 g of a.i./ha, after three weeks. Here is the method:
as §1, §5, §3, §4

For data set [8], the system named is Veronica. The experiment in a line: Post-emergence test/greenhouse. The class given is in vivo. To be noted: 60 g of a.i./ha, after three weeks. Here is the method: as §1, §5, §3, §4
The test system of another data set is Maize. The experiment in a line: Pre-emergence test/greenhouse. Type of data set: in vivo. The note with it: 125 g of a.i./ha, after three weeks, 0%=no effect, 100%=total destruction. The method, then:
as §1, §2, §3, §4

The next data set has as its system Sugar beet. The experiment in a line: Pre-emergence test/greenhouse. The class given is in vivo. The note with it: 125 g of a.i./ha, after three weeks, 0%=no effect, 100%=total destruction. Here is the method:
as §1, §2, §3, §4

The compound `CCOc1nn(C(=O)NS(=O)(=O)/N=c2\sccn2CCCF)c(=O)n1C` [Example 1] yielded a melting point of 178 °C. Further, the activity against weeds result in the data set on weeds [1] was “very strong activity”. In addition, in the data set with Amaranthus [2] (60 g of a.i./ha), the pest or weed control at 60 g/ha came to 100%. Besides, the pest or weed control at 60 g/ha with Echinochloa [3] (60 g of a.i./ha) came out at 100%. For the same compound, in the data set on Matricaria (60 g of a.i./ha), the pest or weed control at 60 g/ha was 100%. Also, in the data set with Setaria (60 g of a.i./ha), the “degree of damage, Setaria” value came out at 100%. For the same compound, in the data set with Veronica [4] (60 g of a.i./ha), the pest or weed control at 60 g/ha was 100%. Further, the activity against weeds entry in the data set with weeds [5] was “very strong activity”. For the same compound, the pest or weed control at 60 g/ha in the data set on Amaranthus [6] was 95%. For the same compound, in the data set with Echinochloa [7], the “degree of damage, Echinochloa” value amounted to 95%. Moreover, the “degree of damage, Polygonum” value with Polygonum is 90%. Moreover, the “degree of damage, Sorghum” value in the data set on Sorghum amounted to 95%. The “degree of damage, Veronica” value in the data set on Veronica [8] stood at 90%.
Consider `COc1nn(C(=O)NS(=O)(=O)/N=c2\sccn2CCCF)c(=O)n1C` [Example 124], for which the melting point came to 189 °C. Also, the activity against weeds result in the data set on weeds [1] is reported as “very strong activity”. The pest or weed control at 125 g/ha in the data set on Amaranthus [2] (125 g of a.i./ha) was found to be 70%. For the same compound, the pest or weed control at 125 g/ha in the data set on Echinochloa [3] (125 g of a.i./ha) came to 90%. For the same compound, in the data set on Maize, the “degree of damage, Maize” value is reported as 0%. Besides, the pest or weed control at 125 g/ha with Matricaria (125 g of a.i./ha) came to 100%. Further, in the data set with Setaria (125 g of a.i./ha), the “degree of damage, Setaria” value is reported as 95%. In addition, the “degree of damage, Sugar beet” value in the data set on Sugar beet stood at 0%. Further, the pest or weed control at 125 g/ha with Veronica [4] (125 g of a.i./ha) was 95%.
